Values quoted from earlier work as cited in US6048869A, “Tricyclic compounds” (Merck & Co., Inc., priority 1999, dated 2000).

Legend:
5α-reductase 1 = details: isozyme predominating in sebaceous glands of facial and skin tissue; Harris et al. 1992

sensitivity of type 1 5α-reductase to finasteride (5α-reductase 1): relatively insensitive
inhibition of the human prostate enzyme (5α-reductase 2; human prostate enzyme): potent inhibitor
inhibition of type 2 5α-reductase (5α-reductase 2; isozyme predominating in the prostate): potently inhibited
SMILES: CC(C)(C)NC(=O)[C@H]1CC[C@H]2[C@@H]3CC[C@H]4NC(=O)C=C[C@]4(C)[C@H]3CC[C@]12C [Finasteride, 17,-(N-tert-butylcarbamoyl)-3-oxo-4-aza-5 α-androst-1-ene-3-one]
